Measurements from patent publication US12516051B1, “Small molecule degraders and fluorescent probes of PXR” (St. Jude Children's Research Hospital, Inc., priority 2024, dated 2026).
Where two headings read alike, the source gives them in different places.

Tested on: SNU-C4 HiBiT-PXR KI cells
Assay: Cytotoxicity, CellTiter-Glo Luminescent Cell Viability Assay
Format: cell-based
Method: An Echo 655T Acoustic Liquid Handler was used to dispense 75 nL/well of DMSO or PROTAC dilution into white tissue culture-treated 384-well plates. For 24 h cytotoxicity, 25 μL assay media containing 1×10^4 cells was added to each well to match the conditions for the degradation assays. For 72 h cytotoxicity, 25 μL RPMI with 10% FBS containing 2.5×10^3 cells was added to each well to match normal growth conditions. […] After 24 h or 72 h, the CellTiter-Glo Luminescent Cell Viability Assay (Promega, cat. #G7572) and an EnVision microplate reader were used to assess cytotoxicity. DMSO wells with cells served as positive controls, and wells without cells served as negative controls. The percent cell viability for each well was calculated using equation 5,

[1] = read-out: 24 h CC50, Table 2, 24 h treatment
[2] = read-out: 72 h CC50, Table 2, 72 h treatment
[3] = read-out: 24 h CC50, Table 3, 24 h treatment
[4] = read-out: 72 h CC50, Table 3, 72 h treatment

| Structure (SMILES) | CC50 [1] [µM] | CC50 [2] [µM] | CC50 [3] [µM] | CC50 [4] [µM] |
| --- | --- | --- | --- | --- |
| COc1ccc(OC)c(-n2nnc(C(=O)Nc3cc(OCCCCCCOCCOCC(=O)N[C@H](C(=O)N4C[C@H](O)C[C@H]4C(=O)NCc4ccc(-c5scnc5C)cc4)C(C)(C)C)cc(C(C)(C)C)c3)c2C)c1 [Compound 15, N-(3-(TERT-BUTYL)-5-((6-(2-(2-(((S)-1-((2S,4R)-4-HYDROXY-2-((4-(4-METHYLTHIAZOL-5 YL)BENZYL)CARBAMOYL)PYRROLIDIN-1-YL)-3,3-DIMETHYL-1-OXOBUTAN-2-YL)AMINO)-2-OXOETHOXY)ETHOXY)HEXYL)OXY)PHENYL)-1-(2,5-DIMETHOXYPHENYL)-5-METHYL-1H-1,2,3-TRIAZOLE-4-CARBOXAMIDE] | > 30 | > 30 | – | – |
| CCC[C@H](CC)Oc1ccc(C(=O)N[C@H](C(=O)N2C[C@H](O)C[C@H]2C(=O)NCc2ccc(-c3scnc3C)cc2)C(C)(C)C)cc1NC(=O)c1nnn(-c2cc(OC)ccc2OC)c1C [Compound 16] | > 30 | > 30 | – | – |
| CCC[C@H](CC)Oc1ccc(C(=O)NCCCCC(=O)N[C@H](C(=O)N2C[C@H](O)C[C@H]2C(=O)NCc2ccc(-c3scnc3C)cc2)C(C)(C)C)cc1NC(=O)c1nnn(-c2cc(OC)ccc2OC)c1C [Compound 17] | > 30 | > 30 | – | – |
| CCC[C@H](CC)Oc1ccc(C(=O)NCCOCCOCC(=O)N[C@H](C(=O)N2C[C@H](O)C[C@H]2C(=O)NCc2ccc(-c3scnc3C)cc2)C(C)(C)C)cc1NC(=O)c1nnn(-c2cc(OC)ccc2OC)c1C [Compound 18] | > 30 | > 30 | – | – |
| CCC[C@H](CC)Oc1ccc(C(=O)NCCCCCCCCC(=O)N[C@H](C(=O)N2C[C@H](O)C[C@H]2C(=O)NCc2ccc(-c3scnc3C)cc2)C(C)(C)C)cc1NC(=O)c1nnn(-c2cc(OC)ccc2OC)c1C [Compound 19] | > 30 | > 30 | – | – |
| CCC[C@H](CC)Oc1ccc(C(=O)NCCOCCOCCOCCOCC(=O)N[C@H](C(=O)N2C[C@H](O)C[C@H]2C(=O)NCc2ccc(-c3scnc3C)cc2)C(C)(C)C)cc1NC(=O)c1nnn(-c2cc(OC)ccc2OC)c1C [Compound 21] | > 30 | > 30 | – | – |
| COc1cc(OCC(=O)N[C@H](C(=O)N2C[C@H](O)C[C@H]2C(=O)NCc2ccc(-c3scnc3C)cc2)C(C)(C)C)c(C)cc1-n1nnc(S(=O)(=O)c2ccc(C(C)(C)C)cc2)c1C [Compound 22, (2S,4R)-1-((S)-2-(2-(4-(4-((4-(TERT-BUTYL)PHENYL)SULFONYL)-5-METHYL-1H-1,2,3-TRIAZOL-1-YL)-5-METHOXY-2-METHYLPHENOXY)ACETAMIDO)-3,3-DIMETHYLBUTANOYL)-4-HYDROXY-N-(4-(4-METHYLTHIAZOL-5 YL)BENZYL)PYRROLIDINE-2-CARBOXAMIDE] | – | – | > 30 | > 30 |
| COc1cc(OCCCC(=O)N[C@H](C(=O)N2C[C@H](O)C[C@H]2C(=O)NCc2ccc(-c3scnc3C)cc2)C(C)(C)C)c(C)cc1-n1nnc(S(=O)(=O)c2ccc(C(C)(C)C)cc2)c1C [Compound 23, (2S,4R)-1-((S)-2-(4-(4-(4-((4-(TERT-BUTYL)PHENYL)SULFONYL)-5-METHYL-1H-1,2,3-TRIAZOL-1-YL)-5-METHOXY-2-METHYLPHENOXY)BUTANAMIDO)-3,3-DIMETHYLBUTANOYL)-4-HYDROXY-N-(4-(4-METHYLTHIAZOL-5-YL)BENZYL)PYRROLIDINE-2-CARBOXAMIDE] | – | – | > 30 | > 30 |
| COc1cc(OCCOCCC(=O)N[C@H](C(=O)N2C[C@H](O)C[C@H]2C(=O)NCc2ccc(-c3scnc3C)cc2)C(C)(C)C)c(C)cc1-n1nnc(S(=O)(=O)c2ccc(C(C)(C)C)cc2)c1C [Compound 24, (2S,4R)-1-((S)-2-(3-(2-(4-(4-((4-(TERT-BUTYL)PHENYL)SULFONYL)-5-METHYL-1H-1,2,3-TRIAZOL-1-YL)-5-METHOXY-2-METHYLPHENOXY)ETHOXY)PROPANAMIDO)-3,3-DIMETHYLBUTANOYL)-4-HYDROXY-N-(4-(4-METHYLTHIAZOL-5-YL)BENZYL)PYRROLIDINE-2-CARBOXAMIDE] | – | – | > 30 | > 30 |
| COc1cc(OCCCCCCCC(=O)N[C@H](C(=O)N2C[C@H](O)C[C@H]2C(=O)NCc2ccc(-c3scnc3C)cc2)C(C)(C)C)c(C)cc1-n1nnc(S(=O)(=O)c2ccc(C(C)(C)C)cc2)c1C [Compound 25, (2S,4R)-1-((S)-2-(8-(4-(4-((4-(TERT-BUTYL)PHENYL)SULFONYL)-5-METHYL-1H-1,2,3-TRIAZOL-1-YL)-5-METHOXY-2-METHYLPHENOXY)OCTANAMIDO)-3,3-DIMETHYLBUTANOYL)-4-HYDROXY-N-(4-(4-METHYLTHIAZOL-5-YL)BENZYL)PYRROLIDINE-2-CARBOXAMIDE] | – | – | > 30 | > 30 |
| COc1cc(OCCOCCOCCC(=O)N[C@H](C(=O)N2C[C@H](O)C[C@H]2C(=O)NCc2ccc(-c3scnc3C)cc2)C(C)(C)C)c(C)cc1-n1nnc(S(=O)(=O)c2ccc(C(C)(C)C)cc2)c1C [Compound 26, (2S,4R)-1-((S)-2-(3-(2-(2-(4-(4-((4-(TERT-BUTYL)PHENYL)SULFONYL)-5-METHYL-1H-1,2,3-TRIAZOL-1-YL)-5-METHOXY-2-METHYLPHENOXY)ETHOXY)ETHOXY)PROPANAMIDO)-3,3-DIMETHYLBUTANOYL)-4-HYDROXY-N-(4-(4-METHYLTHIAZOL-5-YL)BENZYL)PYRROLIDINE-2-CARBOXAMIDE] | – | – | > 30 | > 30 |
| COc1cc(OCCOCCOCCOCCC(=O)N[C@H](C(=O)N2C[C@H](O)C[C@H]2C(=O)NCc2ccc(-c3scnc3C)cc2)C(C)(C)C)c(C)cc1-n1nnc(S(=O)(=O)c2ccc(C(C)(C)C)cc2)c1C [Compound 27, (2S,4R)-1-((S)-14-(TERT-BUTYL)-1-(4-(4-((4-(TERT-BUTYL)PHENYL)SULFONYL)-5-METHYL-1H-1,2,3-TRIAZOL-1-YL)-5-METHOXY-2-METHYLPHENOXY)-12-OXO-3,6,9-TRIOXA-13-AZAPENTADECAN-15-OYL)-4-HYDROXY-N-(4-(4-METHYLTHIAZOL-5-YL)BENZYL)PYRROLIDINE-2-CARBOXAMIDE] | – | – | > 30 | > 30 |
| COc1cc(OCCCCCCOCCOCC(=O)N[C@H](C(=O)N2C[C@H](O)C[C@H]2C(=O)NCc2ccc(-c3scnc3C)cc2)C(C)(C)C)c(C)cc1-n1nnc(S(=O)(=O)c2ccc(C(C)(C)C)cc2)c1C [Compound 28, (2S,4R)-1-((S)-2-(2-(2-((6-(4-(4-((4-(TERT-BUTYL)PHENYL)SULFONYL)-5-METHYL-1H-1,2,3-TRIAZOL-1-YL)-5-METHOXY-2-METHYLPHENOXY)HEXYL)OXY)ETHOXY)ACETAMIDO)-3,3-DIMETHYLBUTANOYL)-4-HYDROXY-N-(4-(4-METHYLTHIAZOL-5-YL)BENZYL)PYRROLIDINE-2-CARBOXAMIDE] | – | – | > 30 | > 30 |
| COc1cc(OCCOCCOCCOCCOCCC(=O)N[C@H](C(=O)N2C[C@H](O)C[C@H]2C(=O)NCc2ccc(-c3scnc3C)cc2)C(C)(C)C)c(C)cc1-n1nnc(S(=O)(=O)c2ccc(C(C)(C)C)cc2)c1C [Compound 29, (2S,4R)-1-((S)-17-(TERT-BUTYL)-1-(4-(4-((4-(TERT-BUTYL)PHENYL)SULFONYL)-5-METHYL-1H-1,2,3-TRIAZOL-1-YL)-5-METHOXY-2-METHYLPHENOXY)-15-OXO-3,6,9,12-TETRAOXA-16-AZAOCTADECAN-18-OYL)-4-HYDROXY-N-(4-(4-METHYLTHIAZOL-5-YL)BENZYL)PYRROLIDINE-2-CARBOXAMIDE] | – | – | > 30 | > 30 |
